Legend:
[1] = system: transplanted tumor of SW1990 breast cancer cells; assay: Transplanted tumor of SW1990 breast cancer cells in nude mice; format: in vivo; settings: 2 mg/kg in combination with 5-fluorouracil at half dose (20 mg/kg), once a day; effect comparable to 5-fluorouracil alone 40 mg/kg
Procedure: (§1) The SW1990 cells were thawed, and cultured in a changed medium after 24 hours. Medium preparation method: 6% serum, 1% of a bispecific antibody+a 1640 basal medium. After grown to confluent, the cells were digested and subcultured to expand the number of cells. When reached the required amount, the cells were digested by trypsin, centrifuged, and resuspended in PBS to prepare a cell suspension of 1×10^8 cells/ml. A part of the cell suspension was added with the monotropein, desacetyl asperulosidic acid, asperuloside, and asperulosidic acid respectively, and the inhibition rate (%) of tumor cell proliferation by each of these different compounds was examined.
Male adult nude mice, which had the body weights of 20-24 g, were purchased from Guangdong Medical Laboratory Animal Center. After 7 days of adaptive feeding of the animals, except for the blank group, the remaining animals were injected with 0.2 ml of a SW1990 cell suspension in PBS at ventrodorsal and scapula sites of them, the response conditions of the animals were observed, and the body weights of the animals were determined once a week. After 2 weeks of observation, the animals were grouped into the following groups according to tumor size: a blank group; a model group; a 5-fluorouracil control group (5-Full, 40 mg/kg); monotropein+5-fluorouracil (2 mg/kg monotropein+20 mg/kg 5-fluorouracil), desacetyl asperulosidic acid+5-fluorouracil (2 mg/kg desacetyl asperulosidic acid+20 mg/kg 5-fluorouracil), asperuloside+5-fluorouracil (2 mg/kg asperuloside+20 mg/kg 5-fluorouracil), asperulosidic acid+5-fluorouracil (2 mg/kg asperulosidic acid+20 mg/kg 5-fluorouracil), these groups being labeled as: Mo, As, Aa, Da. Each group included 8 animals; and administration was conducted once a day.
The status, death conditions, and eating and drinking conditions of the animals were observed daily. The body weights of the animals were determined once a week and the tumor size of the animals was determined every 4 days. The tumor volume of the animals was determined by using a vernier caliper. After 1 month of administration, the animals were sacrificed after blood was sampled from the orbit thereof, and the tumor was separated and weighed.

[2] = system: AOM/DSS colon cancer model; assay: AOM/DSS colon cancer model, Experiment 2 (colon length, thickness, tumors); format: in vivo, Balb/c mice; settings: 2 mg/kg once a day
Procedure: Experimental method: 70 Balb/c mice of 6-8 weeks were purchased from the Experimental Animal Center in Guangzhou University of Chinese Medicine, weighed about 18-22 g, and subjected to adaptive feeding for 10 days. Modeling was divided into three stages. In the first stage, except for the normal group of animals being given saline injection, each of the other animals were intraperitoneally injected with a carcinogen AOM (10 mg/kg), and given free access to 2% DSS water from the next day for 7 days, and then given access to replaced regular drinking water for 14 days. In the second stage, the animals were given free access to 2% DSS water for 10 days, and then given access to replaced regular drinking water for 14 days. In the third stage, the animals were given free access to 2% DSS water for 10 days, and then given access to replaced regular drinking water for 11 days. The normal group was given access to regular drinking water throughout the experiment. The diet, water drinking and body weights of the animals were recorded daily and DAI scores were made, and the animals were killed and harvested at the 10th week. In this experiment, the animals were divided into groups and administrated on the first day of a modeling period of the second stage, where a total of 7 groups were set, each group including 10 animals. The first group was a blank control group (control) that was given access to drinking water by gavage; the second group was a model group (model), in which a total of 10 animals were given access to drinking water by gavage; the third group was a vitamin D3 positive administration control group (VD3, 0.2 mg/kg); and the fourth to seventh groups were given monotropein, desacetyl asperulosidic acid, asperuloside, and asperulosidic acid (groups labeled as: Mo, As, Aa, Da), respectively at a given dose of 2 mg/kg. Dosing was conducted once a day until the end of the experiment. At the end of the experiment, the animals were anesthetized and harvested, and the colon tissue was taken, measured with a ruler for the length, and measured with a vernier caliper for the thickness. The effects of monotropein, desacetyl asperulosidic acid, asperuloside and asperulosidic acid on expression of the vitamin D receptor were detected.

SRC = assay: Detection of acting target of monotropein: SRC (Western blot); format: in vivo, Balb/c mice; settings: colon of AOM/DSS mice
Procedure: Experimental method: 90 Balb/c mice of 6-8 weeks were purchased from the Experimental Animal Center in Guangzhou University of Chinese Medicine, weighed about 18-22 g, and subjected to adaptive feeding for 10 days. Modeling was divided into three stages. In the first stage, except for the normal group of animals being given saline injection, each of the other animals were intraperitoneally injected with a carcinogen AOM (10 mg/kg), and given free access to 2% DSS water from the next day for 7 days, and then given access to replaced regular drinking water for 14 days. In the second stage, the animals were given free access to 2% DSS water for 10 days, and then given access to replaced regular drinking water for 14 days. In the third stage, the animals were given free access to 2% DSS water for 10 days, and then given access to replaced regular drinking water for 11 days. The normal group was given access to regular drinking water throughout the experiment. The diet, water drinking and body weights of the animals were recorded daily and DAI scores were made, and the animals were killed and harvested at the 10th week. […]
A potential acting target of monotropein for interfering with the colon cancer was detected.

[3] = system: SW1990 breast cancer cells; assay: In vitro proliferation inhibition of SW1990 breast cancer cells; format: cell-based; settings: concentration of 1 uM; compared with blank control group
Procedure: as §1

## O=C(O)C1=CO[C@@H](O[C@@H]2O[C@H](CO)[C@@H](O)[C@H](O)[C@H]2O)[C@H]2[C@@H]1C=C[C@]2(O)CO [monotropein]
[1]
  tumor proliferation in SW1990 tumor-bearing mice: significantly inhibit tumor proliferation
[2]
  incidence and development of colorectal cancers: inhibiting the incidence and development of colorectal cancers
SRC
  effect on SRC, Western blot: no significant effect
[3]
  proliferation of SW1990 cells in vitro: significantly inhibit the proliferation

Reference: US20210177879A1, “VITAMIN D RECEPTOR AGONIST” (Guanghzou University of Chinese Medicine, priority 2018, published 2021)
